According to patent US20240317865A1, “ANTIBODIES AGAINST INTEGRIN ALPHA 11 BETA 1” (MOMENTA PHARMACEUTICALS, INC., priority 2020, published 2024):

System: A549 cell xenografts
Test: Tumor xenograft model
Assay type: in vivo, C.B-17 SCID mice
Conditions: docetaxel 10 mg/kg every 4 days, 6 doses
Method: Fifty-six female C.B-17 SCID mice were inoculated with A549 cells (5×10^6 cells/mouse) subcutaneously in the flank. Once tumor volume reached ˜100 mm^3, animals were randomized amongst 7 groups of 8 mice each. Mice were then treated intraperitonealy every 3 days for a total of 7 doses with isotype controls or novel mAbs 79E3E3, 16E10 and 9G04 (2 and 20 mg/kg) or with docetaxel at 10 mg/kg every 4 days for a total of 6 doses. Tumor volumes and body weights were recorded twice a week with a gap of 2-3 days in between two measurements until any of the following conditions defined were observed: loss of 20% or more body weight; tumors that inhibit normal physiological function such as eating, drinking, and mobility; ulcerated tumors; tumor size greater than 2000 mm^3 and clinical observations of prostration, paralysis, seizures and hemorrhages.
In this example, studies were performed to determine if inhibition of α11β1 function with mAb results in xenograft growth inhibition. As shown in FIG. 16 and Table 4, blocking α11β1 on mouse CAFs impeded xenograft growth in SCID mice.

CC(=O)O[C@@]12CO[C@@H]1C[C@H](O)[C@@]1(C)C(=O)[C@H](O)C3=C(C)[C@@H](OC(=O)[C@H](O)[C@@H](NC(=O)OC(C)(C)C)c4ccccc4)C[C@@](O)([C@@H](OC(=O)c4ccccc4)[C@H]21)C3(C)C [Docetaxel, docetaxel, reference compound]
Days to Volume Doubling (ave, 95% CI): 11.0 (10.0, 12.0) Days
